Results reported in patent publication US11931415B2, “Ophthalmic compositions” (The University of Liverpool, priority 2016, dated 2024).
Several values for one entry are separate records, joined by “and”; a condition that tells them apart may be missing. Equal values may be shown once.

Tests used:
[1] = literature value; cited from earlier work
physchem = conditions: SiO1000, oil or lipid
[2] = atRA saturation concentration in SiO and blends using tritiated atRA (liquid scintillation)

solubility (physchem): ~28 µg/mL and 95 µM | Saturation amount of atRA in SiO1000 blended with 1% PDMS-atRA ([2]; 1% (v/v) PDMS-atRA in SiO1000, after 2 weeks at ambient temperature, in air): 2.17 × 10^−3 M and 651.0 μg/mL | Saturation amount of atRA in SiO1000 blended with 5% PDMS-atRA ([2]; 5% (v/v) PDMS-atRA in SiO1000, after 2 weeks at ambient temperature, in air): 2.33 × 10^−3 M and 699.8 μg/mL | Solubility measured with tritiated atRA relative to the previous values ([2]; in SiO1000, tritiated atRA versus previous values): over 20 times | Saturation of atRA in SiO5000 ([2]; in SiO5000, tritiated atRA, n=1): 610 μg/mL and 2.03×10^−3 M
Structure (SMILES): CC1=C(/C=C/C(C)=C/C=C/C(C)=C/C(=O)O)C(C)(C)CCC1 [atRA, (2E,4E,6E,8E)-3,7-Dimethyl-9-(2,6,6-trimethylcyclohexen-1-yl)nona-2,4,6,8-tetraenoic acid]
Solubility reported for atRA in SiO1000 in the literature [1]: 20 μg/mL and 0.6×10^−4 M
